Here are results for two molecules from patent publication US8987284B2, “Phosphorus containing quinazoline compounds and methods of use” (Newgen Therapeutics, Inc., priority 2009, dated 2015).

The nature of data set [1]: Pharmacokinetic study in dog. It is filed as in vivo, Beagle dogs. Also on record: clearance: unit not given here. As to conditions: for AUC(0-inf): read-out: AUC0-inf-obs; for half-life: read-out: T½ (converted). How it is done:
(§1) The dog PK protocol is shown here, while PK study protocol of mouse and rat are similar to dog. Beagle dogs of this study were 6-8 month old and weighed 8 to 10 kg. Example 4 was dissolved in 2% DMA and 98% (40% HP-β-CD in deionized water) to yield concentration at 2 mg/mL for both intravenous (IV, a bolus injection via the lateral tail vein) and oral (PO, via oral gavage) administrations. Blood samples (approximately 1 ml) was collected via cephalic into tubes containing EDTA-K3 anticoagulant pre-dose and post-dose at 5 min, 15 min, 30 min, 1 h, 2 h, 4 h, 6 h, 8 h and 24 h. Blood samples were centrifuged at approximately 8000 rpm for 6 minutes at 2-8° C. and the resulting plasma were separated, labeled and stored frozen at approximately −80° C. Plasma samples analysis was performed by means of LC-MS/MS. The analytical results were confirmed using quality control samples for intra-assay variation.

Data set [2] is described as follows: Pharmacokinetic study in rat. It is filed as in vivo. To be noted: for AUC(0-inf): read-out: AUC0-inf-obs; for half-life: read-out: T½ (converted). Also on record: clearance: unit not given here. How it is done: as §1
The nature of data set [3]: Pharmacokinetic study in mouse. Format: in vivo. Also on record: clearance: unit not given here. As to conditions: for AUC(0-inf): read-out: AUC0-inf-obs; for half-life: read-out: T½ (converted). How it is done: as §1
A further data set addresses T1, EGFR kinase (Homo sapiens, UniProt P00533).
T1 construct: purchased Invitrogen PV3872
The data set can be described thus: Kinase assay for EGFR (TR-FRET LanthaScreen). It is filed as biochemical. As to conditions: % inhibition at 100 nM or IC50 (nM). The procedure: The extent to which the compounds of the present invention modulate EGFR kinase activity can be determined using time-resolved Fret (TR-FRET) assay (LanthaScreen® kinase activity assay, from Invitrogen). The assay employs EGFR kinase (PV3872, Invitrogen), Tb-Py20 antibody (PV3552, Invitrogen) and fluorescein-poly GT (PV3610, In vitrogen)
The assay is performed in a Black 384-well plate (available from Corning). EGFR kinase (is diluted in TR-FRET Dilution Buffer (PV3189, InVitrogen) at concentration of 0.4 ug/ml as stock solution, and then 2-fold serial diluted. Addition of 1 mM ATP initiated the reaction, and the reaction is incubated for 1 h reaction at room temperature. 10 μL of the Tb-antibody (from Invitrogen)+EDTA (from Invitrogen) solution prepared was added to each well of the assay plate and mix briefly, and incubated for 30 min. The signal is monitored by using M5 microplate reader (Ex=332 nm, Em=488 nm and 518 nm). Each compound is tested in duplicate wells. EGFR without compound is used as control. Staurosporine (available from Sigma) is used as positive control compound. Inhibition was calculated as percentage of the EGFR activity (without compound)

Data set [4] can be described thus: Body weight change of NCI-N87 xenograft mice. Format: in vivo, Balb/c nude mice. As to conditions: po. The procedure:
(§2) NCI-N87 cells were purchased from ATCC, and were cultured in RPMI1640+10% FBS+1% P/S antibiotics. Balb/c nude mice were male, 6-8 week old, and weighed 18^±2 g. The cells were implanted subcutaneously into the nude mice (right flank) with 5.0×10^6 cells in 0.1 ml PBS. When the tumor size reached a volume of 200 (150-200) mm^3, the tumor-bearing nude mice derived from NCI-N87 cells were randomly assigned into four groups (10 mice/group). All groups were dosed oral, BID. One group were dosed with vehicle, one group with Lapatinib (75 mg/kg of free base, in the form of ditosylate monoydrate), and the rest two groups with Example 4 (50, 100 mg/kg, p.o. Bid, respectively). The administration period lasted 4 weeks. The tumor volume were measured twice a week, and the body weight were measured immediately before measuring the tumor volume throughout the whole study. […] (See FIG. 1).

For a further data set, the system named is BT474 cells. The data set can be described thus: Cell proliferation inhibition assay for BT474 (CCK-8). It is filed as cell-based. To be noted: Homo sapiens, BT-474; 72 h, 8 points. The procedure:
Human breast cancer BT474 cells was cultured in low glucose DMEM (Life Technologies 12320-032) containing 10% fetal bovine serum (FBS) at 37° C. in a humidified 10% CO2, 90% air incubator. Cells were harvested using trypsin/EDTA, counted using a haemocytometer, and plated 10000 cell/well in a 96-well clear tissue culture plate. The cells were incubated for 24 h at 37° C. to allow adherence. A serials of concentrations of each compound (ranging from 30 uM to […], 5-fold dilution) in 96-well plate, and incubated for 72 h. Each concentration was tested in triplicate wells. During the cell proliferation assay, BT474 cells were cultured in low-glucose DMEM containing 5% FBS, 50 ug/ml gentamicin, and 0.3% v/v DMSO. The culture medium was removed via aspiration, and the cell viability was detected by using CCK-8 cell proliferation kit.

Another data set relates to NCI-N87 xenograft. The experiment in a line: Anticancer effect against NCI-N87 xenograft. It is filed as in vivo, Balb/c nude mice. The procedure:
as §2, with “study. On day 11 after initiation of the treatment, the dosing of Example 4 at 100 mg/kg was suspended, and the dosing of the group was resumed on day 15 at a reduced dose of 75 mg/Kg.” for “study.”

For data set [5] the following is noted: rat; cited from earlier work.
The conditions of data set [6]: mouse; cited from earlier work.
The conditions of data set [7]: dog; cited from earlier work.
Setting [8] is: plasma, IV, 2 mg/Kg, read-out: Vz.

Like-named read-outs stand apart in the source and are kept apart here. Where only a bound is given, the exact number is not on record here.

T1 sequence (P00533 25-1210): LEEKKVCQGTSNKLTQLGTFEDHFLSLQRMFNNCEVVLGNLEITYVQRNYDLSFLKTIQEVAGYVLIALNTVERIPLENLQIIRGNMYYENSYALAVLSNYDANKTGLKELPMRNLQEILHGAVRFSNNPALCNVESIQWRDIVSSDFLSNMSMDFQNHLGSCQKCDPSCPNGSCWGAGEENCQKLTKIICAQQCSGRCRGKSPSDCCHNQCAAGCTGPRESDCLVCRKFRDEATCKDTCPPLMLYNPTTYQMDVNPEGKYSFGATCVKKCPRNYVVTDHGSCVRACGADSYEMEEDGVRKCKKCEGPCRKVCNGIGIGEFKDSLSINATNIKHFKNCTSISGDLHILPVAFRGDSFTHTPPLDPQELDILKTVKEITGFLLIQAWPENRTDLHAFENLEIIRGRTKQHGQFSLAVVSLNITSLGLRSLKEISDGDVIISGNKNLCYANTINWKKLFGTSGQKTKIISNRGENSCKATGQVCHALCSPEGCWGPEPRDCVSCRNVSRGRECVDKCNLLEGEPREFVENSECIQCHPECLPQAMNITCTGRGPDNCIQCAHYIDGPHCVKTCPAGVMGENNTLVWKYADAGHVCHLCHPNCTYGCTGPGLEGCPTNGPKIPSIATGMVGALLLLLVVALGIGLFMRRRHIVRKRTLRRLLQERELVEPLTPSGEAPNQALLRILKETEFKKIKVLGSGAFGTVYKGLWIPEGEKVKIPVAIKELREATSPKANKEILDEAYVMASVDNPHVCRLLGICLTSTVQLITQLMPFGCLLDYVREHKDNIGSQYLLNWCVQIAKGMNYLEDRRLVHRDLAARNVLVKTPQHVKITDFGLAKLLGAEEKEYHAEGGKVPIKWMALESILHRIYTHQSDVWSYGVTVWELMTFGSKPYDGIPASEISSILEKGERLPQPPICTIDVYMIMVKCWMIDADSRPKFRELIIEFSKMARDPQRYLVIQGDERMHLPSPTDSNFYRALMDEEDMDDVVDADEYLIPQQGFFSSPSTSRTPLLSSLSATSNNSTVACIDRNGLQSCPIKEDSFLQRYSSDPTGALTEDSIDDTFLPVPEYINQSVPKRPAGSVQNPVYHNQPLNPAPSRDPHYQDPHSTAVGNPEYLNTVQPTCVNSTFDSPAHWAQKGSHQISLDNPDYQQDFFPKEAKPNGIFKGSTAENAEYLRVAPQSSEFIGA

Take `CP1(=O)CCN(CC#Cc2ccc3ncnc(Nc4ccc(OCc5cccc(F)c5)c(Cl)c4)c3c2)CC1` [Example 4, N-(3-chloro-4-(3-fluorobenzyloxy)phenyl)-6-(3-(4-methyl-1,4-azaphosphino-1-yl)prop-1-ynyl)quinazolin-4-amine]: the F turned out to be 100% in data set [1] (PO, 10 mg/Kg); 89.6% in [2] (PO, 10 mg/Kg); 36% in data set [3] (PO, 10 mg/Kg). The AUC(0-t) in data set [1] (beagle, plasma, IV, 2 mg/Kg) stood at 1480 ng·h/mL; in data set [1] (beagle, plasma, PO, 10 mg/Kg), 7640 ng·h/mL; in data set [2] (plasma, IV, 2 mg/Kg) it was 2130 ng·h/mL; in data set [2] (plasma, PO, 10 mg/Kg) it was 9700 ng·h/mL; in [3] (plasma, IV, 2 mg/Kg) it was 5070 ng·h/mL; in data set [3] (plasma, PO, 10 mg/Kg), 8830 ng·h/mL. Further, the Cmax in data set [1] (beagle, plasma, IV, 2 mg/Kg) is 1150 ng/mL; in [1] (beagle, plasma, PO, 10 mg/Kg), 2380 ng/mL; in [2] (plasma, IV, 2 mg/Kg), 1570 ng/mL; in data set [2] (plasma, PO, 10 mg/Kg) it was 1800 ng/mL; in data set [3] (plasma, IV, 2 mg/Kg), 1520 ng/mL; in data set [3] (plasma, PO, 10 mg/Kg) it was 2840 ng/mL. The clearance in data set [1] (beagle, plasma, IV, 2 mg/Kg) was 22.3; in data set [2] (plasma, IV, 2 mg/Kg), 15.3; in data set [3] (plasma, IV, 2 mg/Kg), 6.5. The AUC(0-inf) stood at 1490 ng·h/mL in [1] (beagle, plasma, IV, 2 mg/Kg); 7720 ng·h/mL in data set [1] (beagle, plasma, PO, 10 mg/Kg); 2180 ng·h/mL in data set [2] (plasma, IV, 2 mg/Kg); 9780 ng·h/mL in data set [2] (plasma, PO, 10 mg/Kg); 5080 ng·h/mL in [3] (plasma, IV, 2 mg/Kg); 9060 ng·h/mL in data set [3] (plasma, PO, 10 mg/Kg). The half-life in data set [1] (beagle, plasma, IV, 2 mg/Kg) was 2.46 h; in data set [1] (beagle, plasma, PO, 10 mg/Kg), 3.8 h; in data set [2] (plasma, IV, 2 mg/Kg) it was 19.9 h; in data set [2] (plasma, PO, 10 mg/Kg), 11.5 h; in data set [3] (plasma, IV, 2 mg/Kg), 0.59 h; in [3] (plasma, PO, 10 mg/Kg), 1.41 h. For the same molecule, the Vd came out at 1.44 L in data set [1] (beagle, plasma, IV, 2 mg/Kg, read-out: Vz); 7.92 L in data set [2] (setting [8]); 0.33 L in data set [3] (setting [8]). Further, the “EGFR inhibition inhibit % at 100 nM or IC50 (nM)” value at EGFR kinase is listed as “++ (>50% inhibition at 100 nM, or IC50 <100 nM for EGFR or ErbB2 kinases)”. Also, the “body weight loss (average)” value in data set [4] (100 mg/Kg, bid, day 10) was 16.9%. Moreover, the “body weight after dosing suspension and resumption” value in data set [4] (suspension for 3 days, resumed at 75 mg/kg) was “recovered and remained normal”. This molecule showed an IC50 in the data set with BT474 cells of less than 100 nM. The “tumor growth inhibition rate” value stood at 85% in the data set with NCI-N87 xenograft (50 mg/Kg, p.o. BID, 4 weeks) and 88% in the data set on NCI-N87 xenograft (100/75 mg/Kg, p.o. BID, 4 weeks (suspended, resumed at 75 mg/Kg)).
Take `CS(=O)(=O)CCNCc1ccc(-c2ccc3ncnc(Nc4ccc(OCc5cccc(F)c5)c(Cl)c4)c3c2)o1` [lapatinib, Lapatinib]: the “oral bioavailability (F)” value is given as 29% in [5], 32% in data set [6] and 63% in data set [7]. For the same molecule, the “tumor growth inhibition rate” value in the data set on NCI-N87 xenograft (75 mg/Kg of free base, oral BID, 4 weeks) is 48%.
